Assay results published in PubChem BioAssay (NCI).
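Assay format: 96-well plates, 48-hour exposure. TGI is the concentration that stops growth completely.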

Tests used:
Assay in all cases: NCI tumour cell line growth inhibition, 48 h
786-0 renal = test system: 786-0 renal
A498 renal = test system: A498 renal
A549 NSCLC = test system: A549 NSCLC
ACHN renal = test system: ACHN renal
CAKI-1 renal = test system: CAKI-1 renal
COLO 205 colon = test system: COLO 205 colon
DLD-1 colon = test system: DLD-1 colon
DMS 114 small cell lung = test system: DMS 114 small cell lung
DMS 273 small cell lung = test system: DMS 273 small cell lung
EKVX NSCLC = test system: EKVX NSCLC
HCC-2998 colon = test system: HCC-2998 colon
HCT-116 colon = test system: HCT-116 colon
HCT-15 colon = test system: HCT-15 colon
HOP-18 NSCLC = test system: HOP-18 NSCLC
HOP-62 NSCLC = test system: HOP-62 NSCLC
HOP-92 NSCLC = test system: HOP-92 NSCLC
HT29 colon = test system: HT29 colon
IGROV1 ovarian = test system: IGROV1 ovarian
KM12 colon = test system: KM12 colon
KM20L2 colon = test system: KM20L2 colon
LOX IMVI melanoma = test system: LOX IMVI melanoma
LXFL 529 NSCLC = test system: LXFL 529 NSCLC
M14 melanoma = test system: M14 melanoma
M19-MEL melanoma = test system: M19-MEL melanoma
MALME-3M melanoma = test system: MALME-3M melanoma
MOLT-4 leukemia = test system: MOLT-4 leukemia
NCI-H226 lung = test system: NCI-H226 lung
NCI-H23 lung = test system: NCI-H23 lung
NCI-H460 lung = test system: NCI-H460 lung
NCI-H522 lung = test system: NCI-H522 lung
OVCAR-3 ovarian = test system: OVCAR-3 ovarian
OVCAR-4 ovarian = test system: OVCAR-4 ovarian
OVCAR-5 ovarian = test system: OVCAR-5 ovarian
OVCAR-8 ovarian = test system: OVCAR-8 ovarian
RPMI-8226 leukemia = test system: RPMI-8226 leukemia
RXF 393 renal = test system: RXF 393 renal
SF-268 CNS = test system: SF-268 CNS
SF-295 CNS = test system: SF-295 CNS
SF-539 CNS = test system: SF-539 CNS
SK-MEL-2 melanoma = test system: SK-MEL-2 melanoma
SK-MEL-28 melanoma = test system: SK-MEL-28 melanoma
SK-MEL-5 melanoma = test system: SK-MEL-5 melanoma
SK-OV-3 ovarian = test system: SK-OV-3 ovarian
SN12C renal = test system: SN12C renal
SNB-19 CNS = test system: SNB-19 CNS
SNB-75 CNS = test system: SNB-75 CNS
SNB-78 CNS = test system: SNB-78 CNS
SR leukemia = test system: SR leukemia
SW-620 colon = test system: SW-620 colon
TK-10 renal = test system: TK-10 renal
U251 CNS = test system: U251 CNS
UACC-257 melanoma = test system: UACC-257 melanoma
UACC-62 melanoma = test system: UACC-62 melanoma
UO-31 renal = test system: UO-31 renal
XF 498 CNS = test system: XF 498 CNS
CCRF-CEM leukemia = test system: CCRF-CEM leukemia
HL-60(TB) leukemia = test system: HL-60(TB) leukemia
K-562 leukemia = test system: K-562 leukemia

CSC1N=CNc2c1sc(=S)n2-c1ccccc1 (centres undefined)
TGI (786-0 renal): > 100 µM | TGI (A498 renal): > 100 µM | TGI (A549 NSCLC): > 100 µM | TGI (ACHN renal): > 100 µM | TGI (CAKI-1 renal): > 100 µM | TGI (COLO 205 colon): > 100 µM | TGI (DLD-1 colon): > 100 µM | TGI (DMS 114 small cell lung): > 100 µM | TGI (DMS 273 small cell lung): > 100 µM | TGI (EKVX NSCLC): > 100 µM | TGI (HCC-2998 colon): > 100 µM | TGI (HCT-116 colon): > 100 µM | TGI (HCT-15 colon): > 100 µM | TGI (HOP-18 NSCLC): > 100 µM | TGI (HOP-62 NSCLC): 74.4 µM | TGI (HOP-92 NSCLC): > 100 µM | TGI (HT29 colon): > 100 µM | TGI (IGROV1 ovarian): > 100 µM | TGI (KM12 colon): > 100 µM | TGI (KM20L2 colon): > 100 µM | TGI (LOX IMVI melanoma): > 100 µM | TGI (LXFL 529 NSCLC): > 100 µM | TGI (M14 melanoma): > 100 µM | TGI (M19-MEL melanoma): > 100 µM | TGI (MALME-3M melanoma): > 100 µM | TGI (MOLT-4 leukemia): > 100 µM | TGI (NCI-H226 lung): > 100 µM | TGI (NCI-H23 lung): > 100 µM | TGI (NCI-H460 lung): > 100 µM | TGI (NCI-H522 lung): > 100 µM | TGI (OVCAR-3 ovarian): > 100 µM | TGI (OVCAR-4 ovarian): > 100 µM | TGI (OVCAR-5 ovarian): > 100 µM | TGI (OVCAR-8 ovarian): > 100 µM | TGI (RPMI-8226 leukemia): > 100 µM | TGI (RXF 393 renal): > 100 µM | TGI (SF-268 CNS): > 100 µM | TGI (SF-295 CNS): > 100 µM | TGI (SF-539 CNS): > 100 µM | TGI (SK-MEL-2 melanoma): > 100 µM | TGI (SK-MEL-28 melanoma): > 100 µM | TGI (SK-MEL-5 melanoma): > 100 µM | TGI (SK-OV-3 ovarian): > 100 µM | TGI (SN12C renal): > 100 µM | TGI (SNB-19 CNS): > 100 µM | TGI (SNB-75 CNS): 84.7 µM | TGI (SNB-78 CNS): > 100 µM | TGI (SR leukemia): > 100 µM | TGI (SW-620 colon): > 100 µM | TGI (TK-10 renal): > 100 µM | TGI (U251 CNS): > 100 µM | TGI (UACC-257 melanoma): > 100 µM | TGI (UACC-62 melanoma): > 100 µM | TGI (UO-31 renal): > 100 µM | TGI (XF 498 CNS): > 100 µM

C/C(CC(=O)Nc1ccc(Cl)c(Cl)c1)=N/NC(=O)C[N+](C)(C)C
TGI (786-0 renal): > 100 µM | TGI (A498 renal): > 100 µM | TGI (A549 NSCLC): > 100 µM | TGI (ACHN renal): > 100 µM | TGI (CAKI-1 renal): > 100 µM | TGI (CCRF-CEM leukemia): > 100 µM | TGI (COLO 205 colon): > 100 µM | TGI (DLD-1 colon): > 100 µM | TGI (DMS 114 small cell lung): 55.6 µM | TGI (DMS 273 small cell lung): > 100 µM | TGI (EKVX NSCLC): > 100 µM | TGI (HCC-2998 colon): > 100 µM | TGI (HCT-116 colon): > 100 µM | TGI (HCT-15 colon): > 100 µM | TGI (HL-60(TB) leukemia): > 100 µM | TGI (HOP-18 NSCLC): > 100 µM | TGI (HOP-62 NSCLC): > 100 µM | TGI (HOP-92 NSCLC): > 100 µM | TGI (HT29 colon): > 100 µM | TGI (IGROV1 ovarian): > 100 µM | TGI (K-562 leukemia): > 100 µM | TGI (KM12 colon): > 100 µM | TGI (KM20L2 colon): > 100 µM | TGI (LOX IMVI melanoma): 35.5 µM | TGI (LXFL 529 NSCLC): > 100 µM | TGI (M14 melanoma): > 100 µM | TGI (M19-MEL melanoma): > 100 µM | TGI (MALME-3M melanoma): > 100 µM | TGI (MOLT-4 leukemia): > 100 µM | TGI (NCI-H226 lung): > 100 µM | TGI (NCI-H23 lung): > 100 µM | TGI (NCI-H460 lung): > 100 µM | TGI (OVCAR-3 ovarian): > 100 µM | TGI (OVCAR-4 ovarian): > 100 µM | TGI (OVCAR-5 ovarian): > 100 µM | TGI (OVCAR-8 ovarian): > 100 µM | TGI (RPMI-8226 leukemia): 63.4 µM | TGI (RXF 393 renal): > 100 µM | TGI (SF-268 CNS): > 100 µM | TGI (SF-295 CNS): > 100 µM | TGI (SF-539 CNS): > 100 µM | TGI (SK-MEL-2 melanoma): > 100 µM | TGI (SK-MEL-28 melanoma): > 100 µM | TGI (SK-MEL-5 melanoma): > 100 µM | TGI (SN12C renal): > 100 µM | TGI (SNB-19 CNS): > 100 µM | TGI (SNB-75 CNS): > 100 µM | TGI (SNB-78 CNS): > 100 µM | TGI (SR leukemia): 43.2 µM | TGI (TK-10 renal): > 100 µM | TGI (UACC-257 melanoma): > 100 µM | TGI (UACC-62 melanoma): > 100 µM | TGI (UO-31 renal): > 100 µM | TGI (XF 498 CNS): > 100 µM
